Results taken from US20110086759A1, “CHEMICAL COMPOUNDS” (SYNGENTA CROP PROTECTION, INC., priority 2007, published 2011).

Tests used:
Format in all cases: in vivo
[1] = tested on: Echinochloa crus-galli (ECHCG); assay: Post-emergence biological efficacy, glasshouse pot test; conditions: 312 h
In short: (§1)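 Plants were sown in standard soil and grown 8 days in a glasshouse (24/16° C. day/night, 14 hours light, 65% humidity), then sprayed post-emergence at 1000 or 250 g/ha from acetone/water (50:50) with 0.5% Tween 20. Damage was scored visually after 13 days (0 = none, 100 = total).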

[2] = tested on: Alopecurus myosuroides (ALOMY); assay: as above; conditions: 312 h
In short: as §1

[3] = tested on: Ipomea hederaceae (IPOHE); assay: as above; conditions: Ipomoea hederacea, 312 h
In short: as §1

[4] = tested on: Setaria faberi (SETFA); assay: as above; conditions: 312 h
In short: as §1

[5] = tested on: Solanum nigrum (SOLNI); assay: as above; conditions: 312 h
In short: as §1

[6] = tested on: Amaranthus retoflexus (AMARE); assay: as above; conditions: Amaranthus retroflexus, 312 h
In short: as §1

[7] = tested on: Echinochloa crus-galli (ECHCG); assay: Pre-emergence biological efficacy, glasshouse pot test; conditions: 312 h
In short: (§2)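 Test compound, formulated in acetone/water (50:50) containing 0.5% Tween 20 and diluted into an aqueous spray, was applied at 1000 or 250 g/ha to pots sown one day earlier. Injury was rated after 13 days, 100 meaning total damage.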

[8] = tested on: Alopecurus myosuroides (ALOMY); assay: as above; conditions: 312 h
In short: as §2

[9] = tested on: Ipomea hederaceae (IPOHE); assay: as above; conditions: Ipomoea hederacea, 312 h
In short: as §2

[10] = tested on: Setaria faberi (SETFA); assay: as above; conditions: 312 h
In short: as §2

[11] = tested on: Solanum nigrum (SOLNI); assay: as above; conditions: 312 h
In short: as §2

[12] = tested on: Amaranthus retoflexus (AMARE); assay: as above; conditions: Amaranthus retroflexus, 312 h
In short: as §2

[13] = Rate 1,000 g/ha, post-emergence spray, evaluated after 13 days (100=total damage to plant; 0=no damage to plant), read-out: Percentage damage caused to weed species, post-emergence, ECHCG
[14] = Rate 1,000 g/ha, post-emergence spray, evaluated after 13 days (100=total damage to plant; 0=no damage to plant), read-out: Percentage damage caused to weed species, post-emergence, ALOMY
[15] = Rate 1,000 g/ha, post-emergence spray, evaluated after 13 days (100=total damage to plant; 0=no damage to plant), read-out: Percentage damage caused to weed species, post-emergence, IPOHE
[16] = Rate 1,000 g/ha, post-emergence spray, evaluated after 13 days (100=total damage to plant; 0=no damage to plant), read-out: Percentage damage caused to weed species, post-emergence, SETFA
[17] = Rate 1,000 g/ha, post-emergence spray, evaluated after 13 days (100=total damage to plant; 0=no damage to plant), read-out: Percentage damage caused to weed species, post-emergence, SOLNI
[18] = Rate 1,000 g/ha, post-emergence spray, evaluated after 13 days (100=total damage to plant; 0=no damage to plant), read-out: Percentage damage caused to weed species, post-emergence, AMARE
[19] = pre-emergence, rate 1,000 g/ha, evaluated after 13 days (100=total damage to plant; 0=no damage), read-out: Percentage damage caused to weed species, ECHCG
[20] = pre-emergence, rate 1,000 g/ha, evaluated after 13 days (100=total damage to plant; 0=no damage), read-out: Percentage damage caused to weed species, ALOMY
[21] = pre-emergence, rate 1,000 g/ha, evaluated after 13 days (100=total damage to plant; 0=no damage), read-out: Percentage damage caused to weed species, IPOHE
[22] = pre-emergence, rate 1,000 g/ha, evaluated after 13 days (100=total damage to plant; 0=no damage), read-out: Percentage damage caused to weed species, SETFA
[23] = pre-emergence, rate 1,000 g/ha, evaluated after 13 days (100=total damage to plant; 0=no damage), read-out: Percentage damage caused to weed species, SOLNI
[24] = pre-emergence, rate 1,000 g/ha, evaluated after 13 days (100=total damage to plant; 0=no damage), read-out: Percentage damage caused to weed species, AMARE
[25] = post-emergence, 1,000 g/ha, evaluated after 13 days (100=total damage; 0=no damage), read-out: Percentage damage caused to weed species, ECHCG
[26] = post-emergence, 1,000 g/ha, evaluated after 13 days (100=total damage; 0=no damage), read-out: Percentage damage caused to weed species, ALOMY
[27] = post-emergence, 1,000 g/ha, evaluated after 13 days (100=total damage; 0=no damage), read-out: Percentage damage caused to weed species, IPOHE
[28] = post-emergence, 1,000 g/ha, evaluated after 13 days (100=total damage; 0=no damage), read-out: Percentage damage caused to weed species, SETFA
[29] = post-emergence, 1,000 g/ha, evaluated after 13 days (100=total damage; 0=no damage), read-out: Percentage damage caused to weed species, SOLNI
[30] = post-emergence, 1,000 g/ha, evaluated after 13 days (100=total damage; 0=no damage), read-out: Percentage damage caused to weed species, AMARE
[31] = pre-emergence, 1,000 g/ha, evaluated after 13 days (100=total damage; 0=no damage), read-out: Percentage damage ECHCG
[32] = pre-emergence, 1,000 g/ha, evaluated after 13 days (100=total damage; 0=no damage), read-out: Percentage damage ALOMY
[33] = pre-emergence, 1,000 g/ha, evaluated after 13 days (100=total damage; 0=no damage), read-out: Percentage damage IPOHE
[34] = pre-emergence, 1,000 g/ha, evaluated after 13 days (100=total damage; 0=no damage), read-out: Percentage damage SETFA
[35] = pre-emergence, 1,000 g/ha, evaluated after 13 days (100=total damage; 0=no damage), read-out: Percentage damage SOLNI
[36] = pre-emergence, 1,000 g/ha, evaluated after 13 days (100=total damage; 0=no damage), read-out: Percentage damage AMARE

SMILES | pest or weed control at 1000 g/ha [1, 13] [%] | pest or weed control at 1000 g/ha [2, 14] [%] | pest or weed control at 1000 g/ha [3, 15] [%] | pest or weed control at 1000 g/ha [4, 16] [%] | pest or weed control at 1000 g/ha [5, 17] [%] | pest or weed control at 1000 g/ha [6, 18] [%] | pest or weed control at 1000 g/ha [7, 19] [%] | pest or weed control at 1000 g/ha [8, 20] [%] | pest or weed control at 1000 g/ha [9, 21] [%] | pest or weed control at 1000 g/ha [10, 22] [%] | pest or weed control at 1000 g/ha [11, 23] [%] | pest or weed control at 1000 g/ha [12, 24] [%] | other results
COC(=O)c1nc(C2CC2)nc(N(CCC#N)Cc2ccco2)c1Cl [Compound 161-125, 5-Chloro-4-[N-(2-cyanoethyl)-N-furan-2-ylmethyl-amino]-2-cyclo-propyl-6-methoxy-carbonylpyrimidine] | 10 | 0 | 40 | 40 | 50 | 80 | 20 | 20 | 80 | 0 | 30 | 100 | –
COC(=O)c1nc(-c2ccc(C)c(C)c2)nc(NCc2ccco2)c1Cl [Compound 255-48, 5-Chloro-2-(3,4-dimethylphenyl)-4-(furan-2-yl-methyl-amino)-6-methoxy-carbonylpyrimidine] | 0 | 0 | 10 | 0 | 40 | 70 | 0 | 0 | 10 | 0 | 0 | 20 | –
COC(=O)c1nc(C2CC2)nc(N(C)Cc2c(Cl)cccc2Cl)c1Cl [Compound 5-104, 5-Chloro-2-cyclopropyl-4-[N-(2,6-dichlorophenyl-methyl)-N-methyl-amino]-6-methoxy-carbonylpyrimidine] | 0 | 0 | 70 | 20 | 60 | 60 | 0 | 0 | 40 | 0 | 10 | 30 | –
COC(=O)c1nc(C2CC2)nc(NC2CCCC2)c1Cl [Compound 4-33, 5-Chloro-4-cyclopentylamino-2-cyclopropyl-6-methoxycarbonyl-pyrimidine] | – | – | – | – | – | – | – | – | – | – | – | – | pest or weed control at 1000 g/ha [1, 25]: 60%; pest or weed control at 1000 g/ha [2, 26]: 30%; pest or weed control at 1000 g/ha [3, 27]: 70%; pest or weed control at 1000 g/ha [4, 28]: 70%; pest or weed control at 1000 g/ha [5, 29]: 70%; pest or weed control at 1000 g/ha [6, 30]: 80%; pest or weed control at 1000 g/ha [7, 31]: 20%; pest or weed control at 1000 g/ha [8, 32]: 0%; pest or weed control at 1000 g/ha [9, 33]: 50%; pest or weed control at 1000 g/ha [10, 34]: 10%; pest or weed control at 1000 g/ha [11, 35]: 20%; pest or weed control at 1000 g/ha [12, 36]: 50%
COC(=O)c1nc(C2CC2)nc(NCc2ccncc2)c1Cl [Compound 4-160, 5-Chloro-2-cyclopropyl-6-methoxycarbonyl-4-(pyrid-4-yl-methyl-amino)pyrimidine] | – | – | – | – | – | – | – | – | – | – | – | – | pest or weed control at 1000 g/ha [1, 25]: 70%; pest or weed control at 1000 g/ha [2, 26]: 40%; pest or weed control at 1000 g/ha [3, 27]: 90%; pest or weed control at 1000 g/ha [4, 28]: 80%; pest or weed control at 1000 g/ha [5, 29]: 80%; pest or weed control at 1000 g/ha [6, 30]: 100%; pest or weed control at 1000 g/ha [7, 31]: 60%; pest or weed control at 1000 g/ha [8, 32]: 20%; pest or weed control at 1000 g/ha [9, 33]: 100%; pest or weed control at 1000 g/ha [10, 34]: 50%; pest or weed control at 1000 g/ha [11, 35]: 90%; pest or weed control at 1000 g/ha [12, 36]: 70%
COC(=O)c1nc(C2CC2)nc(NC(C)c2cccc(C(F)(F)F)c2)c1Cl (stereo not drawn) [Compound 4-179, 5-Chloro-2-cyclopropyl-6-methoxycarbonyl-4-[1-(3-trifluoro-methylphenyl)ethyl-amino]pyrimidine] | – | – | – | – | – | – | – | – | – | – | – | – | pest or weed control at 250 g/ha ([1]; post-emergence, 250 g/ha, evaluated after 13 days (100=total damage; 0=no damage), read-out: Percentage damage caused to weed species, ECHCG): 40%; pest or weed control at 250 g/ha ([2]; post-emergence, 250 g/ha, evaluated after 13 days (100=total damage; 0=no damage), read-out: Percentage damage caused to weed species, ALOMY): 30%; pest or weed control at 250 g/ha ([3]; post-emergence, 250 g/ha, evaluated after 13 days (100=total damage; 0=no damage), read-out: Percentage damage caused to weed species, IPOHE): 60%; pest or weed control at 250 g/ha ([4]; post-emergence, 250 g/ha, evaluated after 13 days (100=total damage; 0=no damage), read-out: Percentage damage caused to weed species, SETFA): 50%; pest or weed control at 250 g/ha ([5]; post-emergence, 250 g/ha, evaluated after 13 days (100=total damage; 0=no damage), read-out: Percentage damage caused to weed species, SOLNI): 80%; pest or weed control at 250 g/ha ([6]; post-emergence, 250 g/ha, evaluated after 13 days (100=total damage; 0=no damage), read-out: Percentage damage caused to weed species, AMARE): 70%; pest or weed control at 250 g/ha ([7]; pre-emergence, 250 g/ha, evaluated after 13 days (100=total damage; 0=no damage), read-out: Percentage damage ECHCG): 0%; pest or weed control at 250 g/ha ([8]; pre-emergence, 250 g/ha, evaluated after 13 days (100=total damage; 0=no damage), read-out: Percentage damage ALOMY): 0%; pest or weed control at 250 g/ha ([9]; pre-emergence, 250 g/ha, evaluated after 13 days (100=total damage; 0=no damage), read-out: Percentage damage IPOHE): 0%; pest or weed control at 250 g/ha ([10]; pre-emergence, 250 g/ha, evaluated after 13 days (100=total damage; 0=no damage), read-out: Percentage damage SETFA): 0%; pest or weed control at 250 g/ha ([11]; pre-emergence, 250 g/ha, evaluated after 13 days (100=total damage; 0=no damage), read-out: Percentage damage SOLNI): 0%; pest or weed control at 250 g/ha ([12]; pre-emergence, 250 g/ha, evaluated after 13 days (100=total damage; 0=no damage), read-out: Percentage damage AMARE): 50%
COC(=O)c1nc(C2CC2)nc(N(C)Cc2ccccc2[N+](=O)[O-])c1Cl [Compound 5-90, 5-Chloro-2-cyclopropyl-6-methoxycarbonyl-4-[N-methyl-N-(2-nitrophenylmethyl)-amino]pyrimidine] | 70 | 50 | 100 | 90 | 90 | 100 | 30 | 20 | 90 | 30 | 90 | 100 | –
